Converted amounts (≈) assume the structure as drawn.
What was measured:
[1] = Determination of logD (1-octanol / phosphate buffer pH 7.4); type: physicochemical; settings: 1-octanol/phosphate buffer, pH 7.4, pH 7.4, 1-octanol/phosphate buffer; read-out: Log D, pH 7.4
Method in brief: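 Each phase analysed by LCMS after 1 h shaking at 800 rpm and centrifugation, room temperature. Phases were mutually saturated 1-octanol and 100 mM phosphate buffer at pH 7.4. LogD derived from the phase concentrations.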

[2] = Determination of kinetic solubility (pH 7.4); type: physicochemical; settings: phosphate buffer, pH 7.4, aqueous buffer, kinetic from dmso stock, 50 mM phosphate buffer pH 7.4, read-out: Ksol, pH 7.4
Method in brief: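 Solubility taken from filtrate peak areas on a calibration curve (HPLC-UV, LC-MS/MS). Before filtration and centrifugation, compound was shaken for 2 h at room temperature in pH 7.4 50 mM phosphate buffer.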

[3] = molecular target: KRAS G12C (GMPPNP-loaded) and PI3Ka (Ras-binding domain) interaction (Homo sapiens (Human), UniProt P01116, C118S/C51S/C80L/G12C); assay: Inhibition of KRAS G12C and PI3Ka binding (AlphaScreen); settings: KRAS G12C loaded with GMPPNP, PI3Ka RBD, 2 hours preincubation; read-out: PI3K RBD K-Ras IC50
KRAS G12C (GMPPNP-loaded) and PI3Ka (Ras-binding domain) interaction, sequence (P01116 other isoform, or with tags, fused parts or gaps G12C/C51S/C80L/C118S): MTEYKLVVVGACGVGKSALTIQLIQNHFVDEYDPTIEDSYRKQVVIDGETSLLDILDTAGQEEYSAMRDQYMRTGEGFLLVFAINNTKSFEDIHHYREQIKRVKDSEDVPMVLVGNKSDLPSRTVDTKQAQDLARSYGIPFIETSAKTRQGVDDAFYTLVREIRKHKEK
Method in brief: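 Biotin-AviTag Cys-light KRAS G12C (aa 1-169, C51S/C80L/C118S), GMPPNP-loaded, 1.5 nM, preincubated 2 h with compound, then His-tagged PI3Ka RBD (aa 157-300, 100 nM) plus AlphaScreen beads added for 60-90 min, RT. Buffer Hepes pH 7.4, 10 μM GMPPNP, 2% DMSO; 10-point 1:3 from 50 μM; 4-parameter IC50.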

[4] = molecular target: KRAS G12C (GMPPNP-loaded) and cRAF (Ras-binding domain) interaction (Homo sapiens (Human), UniProt P01116, C118S/C51S/C80L/G12C); assay: Inhibition of KRAS G12C and cRAF binding (AlphaScreen); settings: KRAS G12C loaded with GMPPNP, cRaf RBD, 2 hours preincubation; read-out: Raf-1 RBD K-Ras IC50
KRAS G12C (GMPPNP-loaded) and cRAF (Ras-binding domain) interaction, sequence (P01116 other isoform, or with tags, fused parts or gaps G12C/C51S/C80L/C118S): as above
Method in brief: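 AlphaScreen readout (680 nm excitation, 570 nm emission) of RBD binding after a 60-90 min bead step at room temperature. This step follows 2 h compound exposure of GMPPNP-preloaded KRAS G12C in Hepes pH 7.4 buffer with MgCl2 and 10 μM GMPPNP.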

Row | logD [1] | solubility kinetic at 2 h [2] | IC50 [3] | IC50 [4] | Structure (SMILES)
1 | 2.84 | 124 µg/mL (≈ 160 µM) | < 10 nM | < 10 nM | N#CC[C@H]1CN(c2nc(OC[C@@]34CCCN3C[C@H](F)C4)nc3c(F)c(-c4cccc(Cl)c4C(F)(F)F)ncc23)CCN1C(=O)/C=C/CN1CCCOCC1 [Compound 113, 2-((S)-1-((E)-4-(1,4-oxazepan-4-yl)but-2-enoyl)-4-(7-(3-chloro-2-(trifluoromethyl)phenyl)-8-fluoro-2-(((2R,7aS)-2-fluorotetrahydro-1H-pyrrolizin-7a(5H)-yl)methoxy)pyrido[4,3-d]pyrimidin-4-yl)piperazin-2-yl)acetonitrile]
2 | 2.71 | 110 µg/mL (≈ 148 µM) | 10 to 100 nM | 10 to 100 nM | N#CC[C@H]1CN(c2nc(OC[C@@]34CCCN3C[C@H](F)C4)nc3c(F)c(-c4cccc5cccc(Cl)c45)ncc23)CCN1C(=O)/C=C/CN1CCOCC1 [Compound 48]
3 | 3.08 | 94.8 µg/mL (≈ 123 µM) | < 10 nM | < 10 nM | N#CC[C@H]1CN(c2nc(OC[C@@]34CCCN3C[C@H](F)C4)nc3c(F)c(-c4cccc5cccc(Cl)c45)ncc23)CCN1C(=O)/C=C/CN1C[C@H]2COC[C@H]2C1 [Compound 228]
4 | 2.98 | 93.4 µg/mL (≈ 125 µM) | < 10 nM | < 10 nM | N#CC[C@H]1CN(c2nc(OC[C@@]34CCCN3C[C@H](F)C4)nc3c(F)c(-c4cccc5ccc(F)c(F)c45)ncc23)CCN1C(=O)/C=C/CN1CCOCC1 [Example 83, 2-((S)-4-(7-(7,8-difluoronaphthalen-1-yl)-8-fluoro-2-(((2R,7aS)-2-fluorotetrahydro-1H-pyrrolizin-7a(5H)-yl)methoxy)pyrido[4,3-d]pyrimidin-4-yl)-1-((E)-4-morpholinobut-2-enoyl)piperazin-2-yl)acetonitrile]
5 | 2.81 | 118 µg/mL (≈ 158 µM) | < 10 nM | < 10 nM | C#Cc1c(F)ccc2cccc(-c3ncc4c(N5CCN(C(=O)/C=C/CN6CCOCC6)[C@@H](CC#N)C5)nc(OC[C@@]56CCCN5C[C@H](F)C6)nc4c3F)c12 [Compound 255]
6 | 3.29 | 10 µg/mL (≈ 13.5 µM) | < 10 nM | < 10 nM | C#Cc1c(F)ccc2cccc(-c3ncc4c(N5CCN(C(=O)/C=C/c6ccnc(C)n6)[C@@H](CC#N)C5)nc(OC[C@@]56CCCN5C[C@H](F)C6)nc4c3F)c12 [Compound 103, 2-((S)-4-(7-(8-ethynyl-7-fluoronaphthalen-1-yl)-8-fluoro-2-(((2R,7aS)-2-fluorotetrahydro-1H-pyrrolizin-7a(5H)-yl)methoxy)pyrido[4,3-d]pyrimidin-4-yl)-1-((E)-3-(2-methylpyrimidin-4-yl)acryloyl)piperazin-2-yl)acetonitrile]
7 | 2.76 | 91.6 µg/mL (≈ 124 µM) | < 10 nM | < 10 nM | CO[C@H]1CCN(C/C=C/C(=O)N2CCN(c3nc(OC[C@@]45CCCN4C[C@H](F)C5)nc4c(F)c(-c5cccc6cccc(F)c56)ncc34)C[C@@H]2CC#N)C1 [Compound 222]
8 | 2.01 | 99.9 µg/mL (≈ 132 µM) | < 10 nM | < 10 nM | CO[C@H]1CCN(C/C=C/C(=O)N2CCN(c3nc(OC[C@@]45CCCN4C[C@H](F)C5)nc4c(F)c(-c5cccc6ccc(F)c(F)c56)ncc34)C[C@@H]2CC#N)C1 [Compound 217]
9 | 2.54 | 56.4 µg/mL (≈ 74.6 µM) | < 10 nM | < 10 nM | N#CC[C@H]1CN(c2nc(OC[C@@]34CCCN3C[C@H](F)C4)nc3c(F)c(-c4cccc5ccc(F)c(F)c45)ncc23)CCN1C(=O)/C=C/CN1C[C@H]2C[C@@H]1CO2 [Compound 218]

The remaining lines, values behind:

Row | Structure (SMILES) | logD [1] | solubility kinetic at 2 h [2] | IC50 [3] | IC50 [4]
10 | Cc1nccc(/C=C/C(=O)N2CCN(c3nc(OCC45CCCN4CCC5)nc4c(F)c(-c5cccc6cccc(Cl)c56)ncc34)C[C@@H]2CC#N)n1 [Compound 139] | 1.93 | 107 µg/mL (≈ 150 µM) | < 10 nM | 10 to 100 nM
11 | Cc1nsc(/C=C/C(=O)N2CCN(c3nc(OC[C@@]45CCCN4C[C@H](F)C5)nc4c3CCN(c3cccc5cccc(Cl)c35)C4)C[C@@H]2CC#N)n1 [Compound 127] | 4.77 | 0.01 µg/mL (≈ 0.0137 µM) | < 10 nM | < 10 nM
12 | CC(C)c1noc(/C=C/C(=O)N2CCN(c3nc(OC[C@]45CCCN4C[C@H](F)C5)nc4c3CCN(c3cccc5ccc(F)c(Cl)c35)C4)C[C@@H]2CC#N)n1 [Compound 131] | 4.96 | 0.01 µg/mL (≈ 0.0132 µM) | 10 to 100 nM | 10 to 100 nM
13 | Cc1nccc(/C=C/C(=O)N2CCN(c3nc(OC[C@@]45CCCN4C[C@H](F)C5)nc4c(F)c(-c5nc(N)cc6cccc(Cl)c56)ncc34)C[C@@H]2CC#N)n1 [Compound 148] | 2.25 | 83.8 µg/mL (≈ 111 µM) | < 10 nM | < 10 nM
14 | N#CC[C@H]1CN(c2nc(OCC34CCCN3CCC4)nc3c2CCN(c2cccc4cccc(Cl)c24)C3)CCN1C(=O)/C=C/c1ccncn1 [Example 10, (S,E)-2-(4-(7-(8-chloronaphthalen-1-yl)-2-((hexahydro-1H-pyrrolizin-7a-yl)methoxy)-5,6,7,8-tetrahydropyrido[3,4-d]pyrimidin-4-yl)-1-(3-(pyrimidin-4-yl)acryloyl)piperazin-2-yl)acetonitrile] | 2.93 | 99 µg/mL (≈ 143 µM) | < 10 nM | < 10 nM
15 | N#CC[C@H]1CN(c2nc(OC[C@@]34CCCN3C[C@H](F)C4)nc3c(F)c(-c4cccc(Cl)c4C(F)(F)F)ncc23)CCN1C(=O)/C=C/CN1[C@@H]2CC[C@H]1COC2 [Compound 111, 2-((S)-1-((E)-4-((1R,5S)-3-oxa-8-azabicyclo[3.2.1]octan-8-yl)but-2-enoyl)-4-(7-(3-chloro-2-(trifluoromethyl)phenyl)-8-fluoro-2-(((2R,7aS)-2-fluorotetrahydro-1H-pyrrolizin-7a(5H)-yl)methoxy)pyrido[4,3-d]pyrimidin-4-yl)piperazin-2-yl)acetonitrile] | 3.23 | 133 µg/mL (≈ 169 µM) | < 10 nM | < 10 nM
16 | CC(C)(C)c1noc(/C=C/C(=O)N2CCN(c3nc(OC[C@@]45CCCN4C[C@H](F)C5)nc4c3CCN(c3cccc5cccc(Cl)c35)C4)C[C@@H]2CC#N)n1 [Compound 31] | 4.35 | 0.01 µg/mL (≈ 0.0133 µM) | 10 to 100 nM | 10 to 100 nM
17 | N#CC[C@H]1CN(c2nc(OC[C@@]34CCCN3C[C@H](F)C4)nc3c(F)c(-c4cccc5ccc(F)c(F)c45)ncc23)CCN1C(=O)/C=C/CN1[C@@H]2CC[C@H]1COC2 [Compound 93, 2-((S)-1-((E)-4-((1R,5S)-3-oxa-8-azabicyclo[3.2.1]octan-8-yl)but-2-enoyl)-4-(7-(7,8-difluoronaphthalen-1-yl)-8-fluoro-2-(((2R,7aS)-2-fluorotetrahydro-1H-pyrrolizin-7a(5H)-yl)methoxy)pyrido[4,3-d]pyrimidin-4-yl)piperazin-2-yl)acetonitrile] | 3.07 | 72.4 µg/mL (≈ 94 µM) | < 10 nM | < 10 nM
18 | Cc1nsc(/C=C/C(=O)N2CCN(c3nc(OCC45CCCN4CCC5)nc4c3CCN(c3cccc5cccc(Cl)c35)C4)C[C@@H]2CC#N)n1 [Example 9, (S,E)-2-(4-(7-(8-chloronaphthalen-1-yl)-2-((hexahydro-1H-pyrrolizin-7a-yl)methoxy)-5,6,7,8-tetrahydropyrido[3,4-d]pyrimidin-4-yl)-1-(3-(3-methyl-1,2,4-thiadiazol-5-yl)acryloyl)piperazin-2-yl)acetonitrile] | 3.55 | 67 µg/mL (≈ 94.4 µM) | < 10 nM | < 10 nM
19 | N#CC[C@H]1CN(c2nc(OC[C@@]34CCCN3C[C@H](F)C4)nc3c(F)c(-c4cccc5ccc(F)c(Cl)c45)ncc23)CCN1C(=O)/C=C/CN1CC2CC(C1)O2 [Example 77, 2-((2S)-1-((E)-4-(6-oxa-3-azabicyclo[3.1.1]heptan-3-yl)but-2-enoyl)-4-(7-(8-chloro-7-fluoronaphthalen-1-yl)-8-fluoro-2-(((2R,7aS)-2-fluorotetrahydro-1H-pyrrolizin-7a(5H)-yl)methoxy)pyrido[4,3-d]pyrimidin-4-yl)piperazin-2-yl)acetonitrile] | 2.92 | 116 µg/mL (≈ 151 µM) | < 10 nM | < 10 nM
20 | Cc1cc(N)nc([C@@H]2Cc3nc(OC[C@@]45CCCN4C[C@H](F)C5)nc(N4CCN(C(=O)/C=C/CN(C)C)[C@@H](CC#N)C4)c3C[C@H]2C)c1C(F)(F)F [Compound 322] | 2.79 | 133 µg/mL (≈ 186 µM) | < 10 nM | < 10 nM

Source: patent US20250129103A1, “METHODS FOR TREATMENT OF CANCER” (Frontier Medicines Corporation, priority 2022, published 2025)
